Target: T1, PCP (Phencylidine) receptor (Rattus norvegicus, UniProt P35439)
T1 construct: the pellets were then suspended in 5mM Tris-HCI buffer and used as the receptor preparation; from tissue; host or cells: rat (male Slc-Wistar) cerebral cortex membrane preparation
Assay: Binding test against PCP (Phencylidine) receptor, 3H-TCP displacement in rat cortex membrane preparation
Set-up: species or system rats (male, Slc-Wistar rat)
Conditions: rat cortex receptor preparation (0.2mg protein/ml), labelled ligand 3H-TCP, 25 °C 30 minutes
Experimental: Binding test against PCP (Phencylidine) receptor Experiment
After the decapitation of rats (male, Slc-Wistar rat, 10 15 weeks age), the cortex tissues was rapidly removed and each was weighed. The tissue was homogenized with ten-fold amount of ice-cold 50mM Tris-HCI buffer (pH7.4), and centrifuged at 40,000 x g for 10 minutes. This procedure is repeated 3 times. Then the obtained sample was freeze-dried in liquid nitrogen and preserved at -80 ° C On the test day, the sample was thawed at room temperature and centrifuged at 40,000 x g for 10 minutes, the pellets were then suspended in 5mM Tris-HCI buffer and used as the receptor preparation (0.2mg protein/ml). The preparation was added to the mixture containing the labelled ligand (^3H-TCP, […]) and the test drug, and the incubation was carried out (25 °C 30 minutes). The reaction was stopped by rapid filtering through Whatman GF/C filter and the filtrate was washed. Radioactivity on filters was determined by liquid scintillation counter and Ki value was calculated. The Whatmann GF/C filter was soaked in 0.05 % polyethyleneimine. (Literature : Vignon, J. et al., Brain R.,280; 194-197 (1983))

SMILES | Ki
c1ccc2c(c1)CCc1ccccc1C21CCCN1 [I a-1, Spiro(dibenzosuberane-5,2'-pyrrolidine)] | 0.047 µM
CCN1CCCC12c1ccccc1CCc1ccccc12 [I a-3, Spiro[dibenzosuberane-5,2'-(1-ethylpyrrolidine)]] | 0.62 µM
Cc1ccc2c(c1)C1(CCCN1)c1ccccc1CC2 (stereo not drawn) [I a-7] | 0.031 µM
Cc1ccc2c(c1)C1(CCCN1C)c1ccccc1CC2 (stereo not drawn) [I a-8] | 0.51 µM
CCCN1CCCC12c1ccccc1CCc1ccc(C)cc12 (stereo not drawn) [I a-9, Spiro[3-methyldibenzosuberane-5,2'-(1-n-propylpyrrolidine)]] | 0.77 µM
CCN1CCCC12c1ccccc1CCc1ccc(C)cc12 (stereo not drawn) [I a-10] | 0.25 µM
Cc1ccc2c(c1)C1(CCCN1Cc1ccccc1)c1ccccc1CC2 (stereo not drawn) [I a-11] | > 0.71 µM
Clc1ccc2c(c1)C1(CCCN1)c1ccccc1CC2 (stereo not drawn) [I a-13, Spiro(3-chlorodibenzosuberane-5,2'-pyrrolidine)] | 0.023 µM
CCN1CCCC12c1ccccc1CCc1ccc(Cl)cc12 (stereo not drawn) [I a-14] | 0.54 µM
